Patent publication US20170209385A1, “ETHYLCELLULOSE DISPERSION AND FILM” (Dow Global Technologies LLC, priority 2014, published 2017)
Structures can show the parent of a compound that is named as a salt. Where two headings read alike, the source gives them in different places.

Tests used:
[1] = Screening: visual/manual check whether a coalesced film formed; type: physicochemical
[2] = 25° C.; cited from earlier work
[3] = unitless; cited from earlier work
[4] = ethylcellulose dispersion plus additive, intact on and after removal from substrate

Row | Compound | Film? Did the sample form a coalesced film? (yes or no) [1, 4] | Film? Did the sample form a coalesced film? (yes or no) [1] | W. Sol. solubility in water [2] [mg/mL] | logP logarithm of the water-octanol partition coefficient [3]
1 | OCCOc1ccccc1 [2-phenoxy ethanol, 2-Phenoxyethanol] | – | yes | 30 | –
2 | CC(C)(C)CC(C)(C)c1ccc(OCCOCC[N+](C)(C)Cc2ccccc2)cc1 [benzethonium chloride] | – | no | – | –
3 | OCc1ccccc1 [benzyl alcohol] | yes | – | 42.9 | –
4 | O=C(OCc1ccccc1)c1ccccc1 [benzyl benzoate] | yes | – | – | 3.81
5 | CC[N+](CC)(CC(=O)Nc1c(C)cccc1C)Cc1ccccc1 [denatonium benzoate] | no | – | – | −0.088
6 | CCCCOC(=O)CCCCCCCCC(=O)OCCCC [dibutyl sebacate] | yes | – | – | 5.958
7 | OCCNCCO [diethanolamine] | no | – | – | −1.761
8 | CCOC(=O)c1ccccc1C(=O)OCC [diethyl phthalate] | yes | – | – | –
9 | COC(=O)c1ccccc1C(=O)OC [dimethyl phthalate] | – | yes | – | –
10 | OCC(O)CO [glycerol] | no | – | 500 | −1.85
11 | CCCCC/C=C\C/C=C\CCCCCCCC(=O)O [linoleic acid] | yes | – | – | –
12 | OC[C@@H](O)[C@@H](O[C@H]1O[C@H](CO)[C@@H](O)[C@H](O)[C@H]1O)[C@H](O)[C@@H](O)CO [maltitol] | no | – | – | –
13 | OC[C@@H](O)[C@@H](O)[C@H](O)[C@H](O)CO [mannitol] | no | – | 182 | −3.62
14 | CCCCCCCC/C=C\CCCCCCCC(=O)O [oleic acid] | yes | – | – | –
15 | CCCCCCCC/C=C\CCCCCCCCO [oleyl alcohol] | yes | – | – | 7.562
16 | OCCc1ccccc1 [phenylethyl alcohol] | yes | – | 20 | –

Further lines, with some results ahead:

Row | Film? Did the sample form a coalesced film? (yes or no) [1, 4] | Compound | Film? Did the sample form a coalesced film? (yes or no) [1] | W. Sol. solubility in water [2] [mg/mL] | logP logarithm of the water-octanol partition coefficient [3]
17 | yes | CCCOC(=O)c1cc(O)c(O)c(O)c1 [propyl gallate] | – | – | 1.779
18 | yes | CC(O)CO (stereo not drawn) [propylene glycol] | – | – | −1.008
19 | no | OC[C@@H](O)[C@@H](O)[C@H](O)[C@@H](O)CO [sorbitol] | – | 182 | −3.262
20 | yes | CCCCCCCCCCCCCCCCCC(=O)O [stearic acid] | – | – | –
21 | no | O=C(O)CCC(=O)O [succinic acid] | – | – | −0.933
22 | yes | CC(=O)OCC(COC(C)=O)OC(C)=O [triacetin] | – | 1.16 | 0.216
23 | yes | CCCCOC(=O)CC(O)(CC(=O)OCCCC)C(=O)OCCCC [tributyl citrate] | – | – | 4.324
24 | yes | CCOC(=O)CC(O)(CC(=O)OCC)C(=O)OCC [triethyl citrate] | – | – | 1.267
25 | no | OC[C@@H](O)[C@H](O)[C@@H](O)CO [xylitol] | – | 1500 | −2.65
